Experimental data taken from US20150192570A1, “METHODS FOR DETERMINING WHETHER A CYTOMEGALOVIRUS INFECTION IN A TRANSPLANTED PATIENT IS SUCEPTIBLE TO INDUCE ALLOGRAFT REJECTION” (priority 2012, published 2015).

Tests used:
[1] = system: MART.22 HLA-E-restricted CD8 T cells; assay: Peptide/HLA-E*0101 tetramer staining of MART.22 T cells by flow cytometry; format: binding, human; settings: PE-streptavidin tetramers, 1 h
Experimental: A/ TNF production in response to stimulation with .221 cells pulsed with synthetic peptides. .221 cells were incubated for 1 h with range concentrations of the indicated peptides before addition of MART.22 T cells. After 6 h, T cells were fixed, permeabilized and stained for intracellular TNF-α. Results are expressed as percentage of TNF-producing T cells. B/ Peptide-MHC tetramer staining of HLA-E-restricted CD8 T cells. MART.22 T cells were incubated for 1 h with biotyniled HLA-E monomers refolded with the indicated peptides and tetramerized with PE-coupled streptavidin. Peptide-HLA-E tetramers staining was assessed by flow cytometry and MFI are indicated.
Peptides VMAPRTLLL and VMAPRTLVL (HLA-A*01- and HLA-A*02-derived signal peptides respectively) with purity >85% were purchased from Eurogentec (Angers, France). HLA-E*0101/peptide monomers were generated by the recombinant protein facility of SFR26 (Nantes, France).
For membrane staining, 2×10^5 cells were incubated at 4° C. with 10 μg/ml of Ab (specific or isotype control) or tetramers for 30 min or 1 h respectively. When non-conjugated mAb were used, a second incubation with PE-conjugated goat F(ab′)2 fragment anti-Mouse IgG (Beckman Coulters) was performed. 5×10^4 cells were acquired in the viable cells gate on a FACScalibur flow cytometer using CellQuest software (Becton Dickinson).

[2] = system: MART.22 HLA-E-restricted CD8 T cells; assay: TNF production by MART.22 against unrecognized endothelial culture HAEC#402 pulsed with synthetic peptides; format: cell-based, human; settings: HAEC#402 loaded with 10^2 μM of peptide
Experimental: A/ Reactivity of HLA-E-restricted T cells against unrecognized endothelial cultures pulsed with synthetic peptides. HAECs were incubated for 1 h with range concentrations of the indicated peptides before MART.22 T cells were added. After 6 h, T cells were fixed, permeabilized and stained for intracellular TNF-α. Results are expressed as percentage of TNF-producing T cells. B/ Impact of KIR2DL2-ligands expression by HAECs on HLA-E-restricted T cells alloreactivity. Percentages of TNF-producing MART.22 T cells are shown for HAECs with none, one or two protective HLA-C alleles. C/ Reactivity of HLA-E-restricted T cells against unrecognized endothelial cultures in the presence of blocking antibodies. HAECs were incubated with MART.22 T cells in the presence or not of indicated concentrations of blocking antobodies. After 6 h, T cells were fixed, permeabilized and stained for intracellular TNF-α. Results are expressed as percentage of TNF-producing T cells.
(§1) For cytokine/perforine/granzyme intracellular staining, 1×10^5 T cells were stimulated in the presence of Brefeldin A (Sigma-Aldrich, 10 μg/ml) with 2×10^5 target cells (B-EBV cells or HAEC) for 6 h at 37° C., in the presence or not of blocking Abs. […] Cells were then fixed with 4% paraformaldehyde (Sigma-Aldrich), labeled with specific mAbs and analyzed by flow cytometry.

HAEC [3] = assay: Surface expression of HLA-E and total HLA-I on endothelial cultures after IFN-γ treatment (flow cytometry); format: cell-based, human; settings: IFN-γ 50 U/mL, 48 h
Experimental: (§2) A/ impact of IFN-γ treatment on surface expression of HLA-E (thick lines) and total HLA-I (dotted lines) molecules by endothelial cultures. MFI are indicated. B/ HLA-E-restricted CD8 T cells cytotoxicity toward endothelial cultures treated or not with IFN-γ. 103 ^51 Cr-labeled HAECs pretreated (closed circles) or not (open circle) with IFN-γ were co-cultured for 4 h with T cells at various E:T ratio. Cytotoxic activity was assessed trought measure of Chromium release in the supernatants. Percentages of specific lysis are indicated. Means and standard deviations of triplicate wells are shown for one representative experiments out of three performed. C/ HLA-E-restricted CD8 T cells cytokine production upon stimulation with endothelials cultures treated or not with IFN-γ. MART.22 T cells were fixed, permeabilized and stained for intracellular cytokines following 6 h of incubation with HAECs pretreated (black bars) or not (white bars) with INF-γ. Data are expressed as percentages of intracellular cytokine secreting T cells upon stimulation. D/ HLA-E-restricted CD8 T cells cytokine production upon stimulation with endothelials cultures treated or not by IFN-γ, in the presence of blocking antibodies. […] Data are expressed as percentages of intracellular TNF secreting T cells upon stimulation. […]

HAEC [4] = assay: Recognition (lysis, cytokine production) of IFN-γ treated endothelial cultures by MART.22; format: cell-based, human
Experimental: as §2, with “stimulation.” for “stimulation. D/ HLA-E-restricted CD8 T cells cytokine production upon stimulation with endothelials cultures treated or not by IFN-γ, in the presence of blocking antibodies.”
as §1
Target cells were labeled with 100 μCi Na^51CrO4 (Oris Industrie, Gif-sur-Yvette, France) for 1 h at 37° C., and incubated 4 h at 37° C., with effectors T cells at various E/T ratios. […] Percentage of target cell lysis was calculated according to the following formula: [(experimental release−spontaneous release)/(maximum release−spontaneous release)]×100. Maximum and spontaneous releases were determined by, respectively, adding 0.1% Triton X-100 or medium to ^51Cr-labeled target cells in the absence of T cells.

[5] = target: classical HLA-I molecules on IFN-γ treated HAEC#495; assay: cell-based or functional assay
[6] = target: protective HLA-C molecules (KIR2DL2 ligands) expressed on HAEC; assay: cell-based or functional assay
[7] = system: MART.22 HLA-E-restricted CD8 T cells; assay: TNF production by MART.22 T cells in response to .221 cells pulsed with synthetic peptides (intracellular TNF-α staining); format: cell-based, human; settings: .221 cells loaded with synthetic peptide
Experimental: For cytokine/perforine/granzyme intracellular staining, 1×10^5 T cells were stimulated in the presence of Brefeldin A (Sigma-Aldrich, 10 μg/ml) with 2×10^5 target cells (B-EBV cells or HAEC) for 6 h at 37° C., in the presence or not of blocking Abs. For peptide loading, target cells were incubated with peptides for 1 h at 37° C. before incubation with T cells. Cells were then fixed with 4% paraformaldehyde (Sigma-Aldrich), labeled with specific mAbs and analyzed by flow cytometry.

`CSCC[C@H](NC(=O)[C@@H](N)C(C)C)C(=O)N[C@@H](C)C(=O)N1CCC[C@H]1C(=O)N[C@@H](CCCNC(=N)N)C(=O)N[C@H](C(=O)N[C@@H](CC(C)C)C(=O)N[C@@H](CC(C)C)C(=O)N[C@@H](CC(C)C)C(=O)O)[C@@H](C)O` [VMAPRTLLL] was tested, and the “binding of HLA-E*0101 tetramers refolded with the peptide to MART.22” value [1] was “bind” and the “TNF secreting T cells” value [2] was 40%.
With `CSCC[C@H](NC(=O)[C@@H](N)C(C)C)C(=O)N[C@@H](C)C(=O)N1CCC[C@H]1C(=O)N[C@@H](CCCNC(=N)N)C(=O)N[C@H](C(=O)N[C@H](C(=O)N[C@@H](CC(C)C)C(=O)N[C@@H](CC(C)C)C(=O)O)C(C)C)[C@@H](C)O` [VMAPRTVLL] the “TNF secreting T cells” value [2] was 18%.
In the case of “IFN-γ: recombinant human IFN-γ (50 U/mL, Imukin, Boehringer Ingelheim)”, the “HLA-E and total HLA-I surface expression on endothelial cells” value (HAEC [3]) is reported as “enhances”, the “MART.22 reactivity against IFN-γ treated HAEC#116” value (HAEC [4]; HAEC#116, unpublished data) is reported as “completely abolished” and the “MART.22 mediated lysis and cytokine production” value (HAEC [4]; IFN-γ treated endothelial cells) is reported as “decreased”. For the same compound, the “TNF-α producing T cells upon stimulation with HAEC#495” value (HAEC [4]; after IFN-γ treatment, 61% untreated) was 33%.
Work on “ILT-2 expressed by MART.22 T cells (from UniProt Q8NHL6 24-650) (receptor)” yielded a TNF-α producing T cells against IFN-γ treated endothelial cells at the maximal dose of mAb against classical HLA-I molecules [5] of 69%.
With “KIR2DL2 expressed by MART.22 T cells (from UniProt P43627 22-348) (receptor)” the TNF producing T cells, endothelial cells with no appropriate HLA-C allele (HAEC#323) [6] was 75%, the TNF producing T cells, endothelial cells with only one appropriate HLA-C allele (HAEC#112, #331 and #495) [6] was 54% and the TNF producing T cells, mean value for endothelial cells with two appropriate HLA-C alleles (HAEC#116, #337 and #402) [6] was 18%. For the same compound, the TNF-producing T cells against HAEC#402 in the presence of anti-HLA-A/B/C Abs [6] was < 25% and the TNF-α producing T cells against IFN-γ treated endothelial cells at the maximal dose of mAb against classical HLA-I molecules [5] was 69%.
With “VMAPRTLVL [HLA-A*02-derived signal peptide, identical to a CMV UL40 peptide]” the “recognition of peptide-pulsed .221 cells by MART.22” value (from here on “recognition”) [7] was “not recognized at all” and the “binding of HLA-E*0101 tetramers refolded with the peptide to MART.22” value [1] was “no significant binding”.
In the case of VTAPRTLLL, the “recognition” value [7] is reported as “not recognized at all”.
In the case of VTAPRTVLL, the “recognition” value [7] is reported as “not recognized at all”.
